Measurements reported in US6623741B1, “Methods and compositions for inhibition of membrane fusion-associated events including RSV transmission” (Trimeris, Inc., priority 2000, dated 2003).
pKd: −log10 of the molar value. Entries after “also recorded” stand apart in the source; their conditions may differ. Like-named read-outs stand apart in the source and are kept apart here.

Assays:
[1] = system: HIV-1LAI; conditions: for IC50 (RT production): CEM cells, 7 days
Procedure: Cell Free Virus Infection Assay:
(§1) Synthetic peptides were incubated at 37° C. with either 247 TCID50 (for experiment depicted in FIG. 2), or 62 TCID50 (for experiment depicted in FIG. 3) units of HIV-1LAI virus or 25 TCID50 units of HIV-2^NIHZ and CEM CD4^+ cells at peptide concentrations of 0, 0.04, 0.4, 4.0, and 40 μg/ml for 7 days. The resulting reverse transcriptase (RT) activity in counts per minute was determined using the assay described, below, in Section 6.1.5. See, Reed, L. J. et al., 1938, Am. J. Hyg. 27: 493-497 for an explanation of TCID50 calculations.
Reverse Transcriptase Assay:
(§2) The micro-reverse transcriptase (RT) assay was adapted from Goff et al. (Goff, S. et al., 1981, J. Virol. 38:239-248) and Willey et al. (Willey, R. et al., 1988, J. Virol. 62:139-147). Supernatants from virus/cell cultures are adjusted to 1% Triton-X100. A 10 μl sample of supernatant was added to 50 μl of RT cocktail in a 96-well U-bottom microtitre plate and the samples incubated at 37° C. for 90 min. The RT cocktail contained 75 mM KCl, 2 mM dithiothreitol, 5 mM MgCl2, 5 μg/ml poly A (Pharmacia, cat. No. 27-4110-01), 0.25 units/ml oligo dT (Pharmacia, cat. No. 27-7858-01), 0.05% NP40, 50 mM Tris-HCl, pH 7.8, 0.5 μM non-radioactive dTTP, and 10 μCi/ml ^32P-dTTP (Amersham, cat. No. PB. 10167).
After the incubation period, 40 μl of reaction mixture was applied to a Schleicher and Schuell (S+S) NA45 membrane (or DE81 paper) saturated in 2×SSC buffer (0.3 M NaCl and […] sodium citrate) held in a S+S Minifold over one sheet of GB003 (S+S) filter paper, with partial vacuum applied. Each well of the minifold was washed four times with 200 μl 2×SSC, under full vacuum. The membrane was removed from the minifold and washed 2 more times in a pyrex dish with an excess of 2×SSC. Finally, the membrane was drained on absorbent paper, placed on Whatman #3 paper, covered with Saran wrap, and exposed to film overnight at −70° C.
DP178 (SEQ ID NO:15) was next tested for its ability to block CD-4^+ CEM cell infection by cell-free HIV-1 virus. […]

[2] = Cell proliferation and toxicity assay; format: cell-based; conditions: human, CEM cells
Procedure: (§3) Cell proliferation and toxicity assay: Approximately 3.8×10^5 CEM cells for each peptide concentration were incubated for 3 days at 37° C. in T25 flasks. Peptides tested were DP178 (SEQ ID NO:15) and DP-116 (SEQ ID NO:1552), as described in FIG. 1. Peptides were synthesized as described, above, in Section 6.1. The concentrations of each peptide used were 0, 2.5, 10, and 40 μg/ml. Cell counts were taken at incubation times of 0, 24, 48, and 72 hours.
(§4) CEM cells were incubated in the presence of varying concentrations of DP178 (SEQ ID NO:15), and DP-116 (SEQ ID NO:1552), a peptide previously shown to be ineffective as an HIV inhibitor (Wild, C. et al., 1992, Proc. Natl. Acad. Sci. USA 89:10,537-10,541). Additionally, cells were incubated in the absence of either peptide.

[3] = system: CEM cells; test: Cell proliferation and toxicity assay; format: cell-based
Procedure: as §3, §4

[4] = target: T1, M41Δ178 fusion protein (DP107 domain of HIV gp41) (Human immunodeficiency virus type 1 group M subtype B, UniProt P03377); test: biochemical; format: binding, HIV-1
T1 construct: made by cloning the DNA fragment corresponding to gp41 amino acids 540-642 into the Xmn I site of pMal-p2; made in house
Procedure: (§5) After incubation and washing, unbound Fab-d is removed from the plates and bound Fab-d is quantitated. A no-inhibitor control should also be conducted.
(§6) Such an assay takes advantage of accepted radioligand and receptor binding principles. (See, for example, Yamamura, H. I. et al., 1985, “Neurotransmitter Receptor Binding”, 2nd ed., Raven Press, NY.) As above, M41Δ78 is immobilized onto a solid support such as a microtiter well. […] Specific binding to M41Δ78 is defined as the difference of the binding of the labeled DP178 preparation in the microtiter wells (totals) and the binding in identical wells containing, in addition, excess unlabeled DP178 (nonspecifics).

[5] = system: HIV-1IIIB; format: cell-based; conditions: for IC90: HIV-1 induced membrane fusion, read-out: Cell Fusion (IC90)
Procedure: Cell Fusion Assays For Anti-HIV Activity:
Cell fusion assays were performed as previously described (Matthews et al., 1987, Proc. Natl. Acad. Sci. USA 84: […]). CEM cells (7×10^4) were incubated with HIV-1IIIB chronically infected CEM cells (10^4) in 96-well flat-bottomed half-area plates (Costar) in 100 μl culture medium. Peptide and fusion proteins at various concentrations in 10 μl culture medium were incubated with the cell mixtures at 37° C. for 24 hours. Multinucleated syncytia were estimated with microscopic examination.

[6] = system: HIV-1IIIB
[7] = target: T2, DP107-like domain of the RSV F1-protein (MF5.1 fusion protein) (Human respiratory syncytial virus A, UniProt P03420); test: biochemical; format: binding
T2 construct: made in house
Procedure: as §5, §6
Specifically, the DNA sequence corresponding amino acid residues 142-302 of the RSV F1 protein was amplified by PCR and cloned into the Xmn I site of the expression vector pMal-p2 (New England Biolab) to give MF5.1. These amino acid residues correspond to the extracellular domain of the RSV F1 protein including its DP107 region but excluding the DP178 region.
Cell fusion assays were performed with each of the peptides as described in Section 17 above.

[8] = system: HIV-1 (HIV-1LAI, HIV-1MN, HIV-1RF, HIV-1SF2); format: cell-based
Procedure: Approximately 7×10^4 Molt cells were incubated with 1×10^4 CEM cells chronically infected with the HIV-1LAI virus in 96-well plates (one-half area cluster plates; Costar, Cambridge, Mass.) in a final volume of 100 μl culture medium as previously described (Matthews, T. J. et al., 1987, Proc. Natl. Acad. Sci. USA 84: 5424-5428). Peptide inhibitors were added in a volume of 10 μl and the cell mixtures were incubated for 24 hr. at 37° C. At that time, multinucleated giant cells were estimated by microscopic examination at a 40× magnification which allowed visualization of the entire well in a single field.
The initial screen for antiviral activity assayed peptides' ability to block syncytium formation induced by overnight co-cultivation of uninfected Molt 4 cells with chronically HIV-1 infected CEM cells. […] In the first of these experiments, serial DP178 (SEQ ID NO:15) peptide concentrations between 10 μg/ml and 12.5 ng/ml were tested for blockade of the cell fusion process. For these experiments, CEM cells chronically infected with either HIV-1LAI, HIV-1MN, HIV-1RF, or HIV-1SF2 virus were cocultivated overnight with uninfected Molt 4 cells.
The next series of experiments involved the preparation and testing of a DP178 (SEQ ID NO:15) homolog for its ability to inhibit HIV-1-induced syncytia formation.
(§7) The next series of experiments involved a comparison of DP178 (SEQ ID NO:15) HIV-1 and HIV-2 inhibitory activity.

[9] = system: HIV-2; test: Cell fusion assay: HIV-2 mediated syncytia formation; format: cell-based
Source text: as §7

[10] = system: HIV-2NIHZ; test: Cell free virus infection assay (RT production, CEM cells); format: cell-based
Procedure: as §1
as §2, with “10167). […]” for “10167).”

[11] = system: Fab-d (human recombinant Fab); test: ELISA analysis of Fab-d binding / DP178 binding to the leucine zipper motif of gp41; conditions: reagent alone
Procedure: ELISA Analysis of DP178 Binding to the Leucine Zipper Motif of gp41:
Each well was washed three times with distilled water then blocked with 3% bovine serum albumin (BSA) for 2 hours. After blocking, peptides with 0.5% BSA in TBST (40 mM Tris-HCl pH7.5, 150 mM NaCl, 0.05% Tween 20) were added to the ELISA plates and incubated at room temperature for 1 hour. After washing three times with TBST, Fab-d was added at a concentration of 10 ng/ml with 0.5% BSA in TBST. The plates were washed three times with TBST after incubation at room temperature for 1 hour. Horseradish peroxidase (HRP) conjugated goat antihuman Fab antiserum at a 2000 fold dilution in TBST with 0.5% BSA was added to each well and incubated at room temperature for 45 minutes. The plates were then washed four times with TBST. The peroxidase substrate o-phenylene diamine (2.5 mg/ml) and 0.15% H2O2 were added to develop the color. The reaction was stopped with an equal volume of 4.5 N H2SO4 after incubation at room temperature for 10 minutes. The optical density of the stopped reaction mixture was measured with a micro plate reader (Molecular Design) at 490 nm.

T2 sequence (P03420 142-302): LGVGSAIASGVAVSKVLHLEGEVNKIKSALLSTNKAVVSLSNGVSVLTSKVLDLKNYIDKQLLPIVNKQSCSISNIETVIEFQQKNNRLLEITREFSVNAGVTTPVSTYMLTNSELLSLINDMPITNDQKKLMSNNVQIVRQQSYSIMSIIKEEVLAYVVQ
T1 sequence (P03377 540-642, stated change not applied): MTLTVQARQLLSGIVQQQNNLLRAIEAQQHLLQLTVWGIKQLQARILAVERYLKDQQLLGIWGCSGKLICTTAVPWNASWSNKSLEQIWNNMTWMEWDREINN

## Ac-LQARILAVERYLKDQQQ-NH2 [DP-116, reference compound]
[1]; FIG. 1 legend
  inhibition of HIV-1 cell free virus infection (in words): negative for inhibition of HIV-1 infection
[2]; 2.5 μg/ml, 0 hours
  viability at 0 h, 2.5 µg/mL: 98%
[2]; 2.5 μg/ml, 24 hours
  viability at 24 h, 2.5 µg/mL: 96%
[2]; 2.5 μg/ml, 48 hours
  viability at 48 h, 2.5 µg/mL: 98%
[2]; 2.5 μg/ml, 72 hours
  viability at 72 h, 2.5 µg/mL: 99%
[2]; 10 μg/ml, 0 hours
  viability at 0 h, 10 µg/mL: 98%
[2]; 10 μg/ml, 24 hours
  viability at 24 h, 10 µg/mL: 95%
[2]; 10 μg/ml, 48 hours
  viability at 48 h, 10 µg/mL: 93%
[2]; 10 μg/ml, 72 hours
  viability at 72 h, 10 µg/mL: 98%
[2]; 40 μg/ml, 0 hours
  viability at 0 h, 40 µg/mL: 98%
[2]; 40 μg/ml, 24 hours
  viability at 24 h, 40 µg/mL: 95%
[2]; 40 μg/ml, 48 hours
  viability at 48 h, 40 µg/mL: 98%
[2]; 40 μg/ml, 72 hours
  viability at 72 h, 40 µg/mL: 97%

## enfuvirtide
[3]; 2.5 μg/ml, 0 hours
  % Viability: 98%
[3]; 2.5 μg/ml, 24 hours
  % Viability: 93%
[3]; 2.5 μg/ml, 48 hours
  % Viability: 96%
[3]; 2.5 μg/ml, 72 hours
  % Viability: 96%
[3]; 10 μg/ml, 0 hours
  % Viability: 98%
[3]; 10 μg/ml, 24 hours
  % Viability: 97%
[3]; 10 μg/ml, 48 hours
  % Viability: 98%
[3]; 10 μg/ml, 72 hours
  % Viability: 98%
[3]; 40 μg/ml, 0 hours
  % Viability: 98%
[3]; 40 μg/ml, 24 hours
  % Viability: 97%
[3]; 40 μg/ml, 48 hours
  % Viability: 95%
[3]; 40 μg/ml, 72 hours
  % Viability: 97%
[3]; CEM cells, up to 40 μg/ml, 3 days
  cytotoxic effects on cells in culture: non-cytotoxic; also recorded: no cytotoxic effects
[4]
  pKd: 8.00

## Ac-NNLLRAIEAQQHLLQLTVWGIKQLQARILAVERYLKDQ-NH2 [DP107]
[5]
  IC90: 1 µM
[6]; read-out: HIV-infectivity (IC90), HIV-1IIIB
  IC90: 1 µM

## Ac-VYPSDEFDASISQVNEKINQALAYIRKADELLHNV-NH2 [Peptide T1091]
[7]
  binding affinity relative to T112: approximately ten-fold less

## Enfuvirtide
[8]; HIV-1LAI infected CEM + Molt 4 cells
  concentration affording complete protection against syncytium formation (lowest concentration tested): ≤ 12.5 ng/mL
[8]; HIV-1MN, HIV-1RF, HIV-1SF2 infected CEM + Molt 4 cells
  concentration affording complete protection against syncytium formation (lowest concentration tested): ≤ 100 ng/mL
[8]; HIV-1 mediated CD-4+ cell-cell fusion
  concentration completely blocking virus-induced syncytia formation (lowest effective inhibitory concentration): 1 to 10 ng/mL
[8]; HIV-1 vs HIV-2 comparison, FIG. 5
  concentration blocking HIV-1-mediated syncytia formation: below 1 ng/ml
[9]
  selectivity as inhibitor of HIV-1-mediated over HIV-2 mediated cell fusion: 4 log
[9]; FIG. 5
  concentration failing to block HIV-2 mediated syncytia formation: > 10 µg/mL
[1]; 62 TCID50 HIV-1LAI
  IC50 (RT production): about 31 ng/ml
[1]; 247 TCID50 HIV-1LAI
  IC50 (RT production): 0.09 µg/mL
[10]; 25 TCID50 HIV-2NIHZ, CEM cells, 7 days
  IC50 for HIV-2NIHZ (in words): much higher IC50
[10]; cell-free infection
  potency as HIV-1 inhibitor versus HIV-2 inhibitor: two logs more potent
[5]; 10 nM
  syncytia in the presence of the peptide: no observable syncytia
[5]
  IC90: 0.001 µM
[11]
  Fab-d binding (in words): failed to bind
[6]; 1IIIB
  IC90: 0.08 µM
